# Read-outs that look alike come from different tables or passages of the source. Bridge positions count the residues as written; N and C are the ends. Square brackets hold non-standard residues; d marks the D form. Peptide text beside a SMILES is read from it. Pro(cis-4-guanidino) = NC(N)=N[C@@H]1CN[C@H](C(=O)O)C1
# Columns and labels:
# [1] = format: cell-based, human; details: human; for viability at 2 h, 3.12 µM / viability at 2 h, 6.25 µM / viability at 2 h, 12.5 µM / viability at 2 h, 25 µM / viability at 2 h, 50 µM / viability at 2 h, 100 µM / viability at 24 h, 3.12 µM / viability at 24 h, 6.25 µM / viability at 24 h, 12.5 µM / viability at 24 h, 25 µM / viability at 24 h, 50 µM / viability at 24 h, 100 µM: Cell viability (%)
# Procedure: (§1) For the evaluation of peptides’ cytotoxicity, the human immortalized keratinocytes (HaCaT cells), purchased from AddexBio (San Diego, CA, USA), and BEAS-2B were used. HaCaT cells were cultured in Dulbecco’s modified Eagle’s medium supplemented with 4 mM glutamine (DMEM), 10% heat-inactivated fetal bovine serum (FBS), and 0.1 mg/mL of penicillin and streptomycin, at 37 °C and 5% CO2. BEAS-2B cells were cultured in RPMI, supplemented with 2 mM glutamine (DMEM), 10% heat-inactivated fetal bovine serum (FBS), 1 mM sodium pyruvate, and 0.1 mg/mL of penicillin and streptomycin, at 37 °C and 5% CO2. Cytotoxicity was tested in vitro using a colorimetric assay that relies on the intracellular reduction of the yellow 3-(4,5-dimethylthiazol-2-yl)-2,5-diphenyltetrazolium bromide salt (MTT) by mitochondrial dehydrogenases of metabolically active cells in formazan crystals (purple). About 4 × 10^4 HaCaT and BEAS-2B cells, suspended in DMEM supplemented with 2% FBS, were plated in triplicate wells of a 96-well microtiter plate. The plate was incubated overnight at 37 °C and 5% CO2. Then, the cells were treated with different concentrations of the peptide (from 100 to 3.12 μM) in a fresh serum-free medium for 2 h and for a longer time (24 h). Following peptide treatment, the medium was removed, and MTT (0.5 mg/mL) solution in Hank’s buffer (136 mM NaCl, 4.2 mM Na2HPO4, 4.4 mM KH2PO4, 5.4 mM KCl, 4.1 mM NaHCO3, pH 7.2, supplemented with 20 mM D-glucose) was added to each well of the plate, that was then incubated for 4 h at 37 °C and 5% CO2. The purple formazan crystals were dissolved using acidified 2-propanol and a microplate reader (Infinite M200; Tecan, Salzburg, Austria) was used to measure the absorbance of each well at 570 nm. The percentage of cell viability was calculated compared to the control, which consisted of cells without any peptide treatment (corresponding to 100% viability) and all data represent the mean of three independent experiments ± SEM.
# E. coli D21 = experiment: microbe, parasite or virus in culture; format: cell-based; details: D21
# Procedure: (§2) Bacterial strains used in this study were the Gram-positive S. aureus ATCC 25923, S. epidermidis ATCC 12228, B. megaterium BM11, S. [NT] 27591, E. faecalis ATCC 29212 and the Gram-negative E. coli ATCC 25922, P. aeruginosa ATCC 27853, A. baumannii ATCC 19606, E. coli D21 and P. aeruginosa PAO1. […] Bacterial cells in the mid log phase were diluted in Muller Hinton (MH) at a concentration of 2 × 10^6 cell/mL. […] Ciprofloxacin was used as antibiotic control. The plate was then incubated at 37 °C. MICs were obtained from three identical readings of four independent experiments.
# E. coli ATCC 25922 = experiment: microbe, parasite or virus in culture; format: cell-based; details: ATCC 25922
# Procedure: as §2
# [2] = system: S. epidermidis ATCC 12228; experiment: microbe, parasite or virus in culture; format: cell-based; details: ATCC 12228
# Procedure: as §2
# P. aeruginosa ATCC 27853 = experiment: microbe, parasite or virus in culture; format: cell-based; details: ATCC 27853
# Procedure: as §2
# S. aureus ATCC 25923 = experiment: microbe, parasite or virus in culture; format: cell-based; details: ATCC 25923
# Procedure: as §2
# B. megaterium BM11 = experiment: microbe, parasite or virus in culture; format: cell-based; details: BM11
# Procedure: as §2
# S. agalactiae ATCC 27591 = experiment: microbe, parasite or virus in culture; format: cell-based; details: ATCC 27591
# Procedure: as §2
# A. baumannii ATCC 19606 = experiment: microbe, parasite or virus in culture; format: cell-based; details: ATCC 19606
# Procedure: as §2
# E. faecalis ATCC 29212 = experiment: microbe, parasite or virus in culture; format: cell-based; details: ATCC 29212
# Procedure: as §2
# in vitro = in vitro ADME
# Procedure: Peptide stability was evaluated by modifying previously described procedures. , The assays were performed in human serum and in the presence of proteolytic enzymes such as trypsin and chymotrypsin. For human serum stability, 2 mM peptide stock solutions were prepared in water and mixed with human serum (from male AB plasma, USA origin, sterile-filtered, Merck/Sigma-Aldrich, USA) to obtain a final concentration of 200 μM [human plasma/stock solution (9:1, v/v)]. The mixtures were incubated at 37 ± 1 °C, and 50 μL aliquots were taken at predetermined time intervals (0, 1, 2, 4, 8, and 24 h). Protease activity was quenched by adding 100 μL of acetonitrile (MeCN). The resulting cloudy suspensions were cooled to 4 °C for 30 min and centrifugated at 12,000 rpm for 10 min to remove the serum proteins. Then, the supernatants were analyzed by analytical HPLC (Shimadzu Nexera Liquid Chromatograph LC-30AD) which was equipped with a Phenomenex Kinetex reversed-phase column (C18, 5 μm, 100 Å, 150 mm × 4.6 mm) with a flow rate of 1 mL/min using a gradient of MeCN (0.1% TFA) in water (0.1% TFA), from 10 to 70% over 15 min, and UV detection at 220 nm. For enzyme stability, each peptide peptide (200 μM) was incubated with trypsin (0.5 μM) in PBS 1× (pH 7.2) or with chymotrypsin (0.005 μM) in Tris–HCl (100 mM, pH 7.8). Samples (50 μL) were collected at 0, 1, 2, 4, and 24 h, quenched with 0.5% TFA in water, and analyzed by HPLC under chromatographic conditions as described above. All experiments were conducted in triplicate. The percentage of intact peptides at each time point was determined by integrating the corresponding HPLC peak areas.
# [3] = format: cell-based; details: for viability at 12.5 µM: cell viability
# Procedure: as §1
# circular dichroism = details: water; pH ns; 25 °C; 150 uM
# [4] = isolated enzyme chymotrypsin, pH 7.8
# [5] = isolated enzyme trypsin, pH 7.2
MIC (E. coli D21) [µM],MIC (E. coli ATCC 25922) [µM],MIC [2] [µM],MIC (P. aeruginosa ATCC 27853) [µM],MIC (S. aureus ATCC 25923) [µM],MIC (B. megaterium BM11) [µM],MIC (S. agalactiae ATCC 27591) [µM],Compound,CC50 at 24 h [1] [µM],"viability at 2 h, 3.12 µM [1] [%]","viability at 2 h, 6.25 µM [1] [%]","viability at 2 h, 12.5 µM [1] [%]","viability at 2 h, 25 µM [1] [%]","viability at 2 h, 50 µM [1] [%]","viability at 2 h, 100 µM [1] [%]","viability at 24 h, 3.12 µM [1] [%]","viability at 24 h, 6.25 µM [1] [%]","viability at 24 h, 12.5 µM [1] [%]","viability at 24 h, 25 µM [1] [%]","viability at 24 h, 50 µM [1] [%]","viability at 24 h, 100 µM [1] [%]",also measured
3.12,6.25,1.56,12.5,6.25,0.39,1.56,"CC[C@H](C)[C@H](NC(=O)[C@H](CCCNC(=N)N)NC(=O)[C@H]1CCCCNC(=N)NCCCC[C@H](NC(=O)[C@H](Cc2ccccc2)NC(=O)[C@H](Cc2c[nH]c3ccccc23)NC(=O)[C@@H]2CCCN2C(=O)[C@@H](NC(=O)[C@@H](N)Cc2ccccc2)C(C)C)C(=O)N[C@@H](CCCCN)C(=O)N[C@@H](Cc2ccccc2)C(=O)N[C@H](CC(C)C)C(=O)N1)C(=O)N[C@@H](CC(C)C)C(N)=O [Peptide 12, FVPWF{KKFlk}RIL]",19.6,101,103,88,47,11,10,100 ± 1,101 ± 2,90 ± 4,28 ± 4,2 ± 1,3 ± 1,"MIC (A. baumannii ATCC 19606): 1.56 µM; MIC (E. faecalis ATCC 29212): 6.25 µM; remaining at 4 h, 200 μM (in vitro; [4]): ~40%; remaining at 4 h, 200 μM (in vitro; [5]): ~80%; remaining at 24 h, 200 μM (in vitro; [5]): ~35%; viability at 2 h, 3.12 µM ([3]; Cell viability (%)): 106%; viability at 2 h, 6.25 µM ([3]; Cell viability (%)): 104%; viability at 2 h, 12.5 µM ([3]; Cell viability (%)): 56%; viability at 2 h, 25 µM ([3]; Cell viability (%)): 14%; viability at 2 h, 50 µM ([3]; Cell viability (%)): 4%; viability at 2 h, 100 µM ([3]; Cell viability (%)): 4%; viability at 24 h, 3.12 µM ([3]; Cell viability (%)): 93%; viability at 24 h, 6.25 µM ([3]; Cell viability (%)): 86%; viability at 24 h, 12.5 µM ([3]; Cell viability (%)): 66%; viability at 24 h, 25 µM ([3]; Cell viability (%)): 14%; viability at 24 h, 100 µM ([3]; Cell viability (%)): 0%; viability at 12.5 µM [3]: ~60%; helicity (circular dichroism): 63%"
3.12,3.12,3.12,12.5,6.25,0.78,1.56,"CC[C@H](C)[C@H](NC(=O)[C@H](CCCNC(=N)N)NC(=O)[C@H]1CCC(=O)NCCCC[C@H](NC(=O)[C@H](Cc2ccccc2)NC(=O)[C@H](Cc2c[nH]c3ccccc23)NC(=O)[C@@H]2C[C@H](NC(=N)N)CN2C(=O)[C@@H](NC(=O)[C@@H](N)Cc2ccccc2)C(C)C)C(=O)N[C@@H](CCCCN)C(=O)N[C@@H](Cc2ccccc2)C(=O)N[C@H](CC(C)C)C(=O)N1)C(=O)N[C@@H](CC(C)C)C(N)=O [Peptide 7, FV(4-guanidino)PWF[KKFle]RIL] (H-FV[Pro(cis-4-guanidino)]WFKKF[dL][dE]RIL-NH2; lactam 6-10)",37,101,100,102,72,16,8,99 ± 5,98 ± 1,95 ± 4,85 ± 2,18 ± 3,2 ± 1,"MIC (A. baumannii ATCC 19606): 3.12 µM; MIC (E. faecalis ATCC 29212): 12.5 µM; remaining at 4 h, 200 μM (in vitro; [4]): ~20%; remaining at 4 h, 200 μM (in vitro; [5]): 10%; viability at 2 h, 3.12 µM ([3]; Cell viability (%)): 105%; viability at 2 h, 6.25 µM ([3]; Cell viability (%)): 117%; viability at 2 h, 12.5 µM ([3]; Cell viability (%)): 80%; viability at 2 h, 25 µM ([3]; Cell viability (%)): 28%; viability at 2 h, 50 µM ([3]; Cell viability (%)): 6%; viability at 24 h, 3.12 µM ([3]; Cell viability (%)): 111%; viability at 24 h, 6.25 µM ([3]; Cell viability (%)): 104%; viability at 24 h, 12.5 µM ([3]; Cell viability (%)): 90%; viability at 24 h, 25 µM ([3]; Cell viability (%)): 34%; viability at 24 h, 50 µM ([3]; Cell viability (%)): 9%; viability at 24 h, 100 µM ([3]; Cell viability (%)): 4%; viability at 12.5 µM [3]: ~85%; helicity (circular dichroism): 1%"

# From paper PMC12703733, “Probing Guanidino Pendant or Bridged Groups in Cyclic Antimicrobial Peptides Derived from Temporin L: A Strategy to Improve Efficacy against Gram-Negative Bacteria” (Journal of Medicinal Chemistry, 2025)
